Test in all cases: MTT cell proliferation assay
Holding throughout (format): cell-based
In general terms: Tetrazolium assays rely on reduction of a dye to a coloured formazan, in cell work by metabolically active cells.

One test deals with 3T3 cells. The conditions noted are these: Mus musculus, NIH3T3, approximately 64-72 hours incubation. The method in brief: (§1)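 5,000-10,000 cells/well, overnight attach; 8 conc., 1 nM–30 μM; MTT ~4 h; formazan solubilized, OD 490 nm; % inhibition = (1−(ODo/OD))×100 vs neg. control; mostly duplicate, mean±SE.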
In another test the test system is MS751 cells. Conditions: Homo sapiens, MS751, MS751 cells, approximately 64-72 hours incubation. In outline: as §1
The next test deals with Z138 cells. Conditions: Homo sapiens, Z-138, Z138 cells, approximately 64-72 hours incubation. In outline:
as §1

The mark [1] stands for this setting: read-out: MTT Assay IC50, MS-751.
Where [2] appears, read: read-out: MTT Assay IC50, Z-138.
The mark [3] stands for this setting: read-out: MTT Assay IC50 MS-751.

Read-outs that look alike come from different tables or passages of the source. Some results are limits rather than exact numbers.

By IC50 is commonly meant the concentration that inhibits the measured activity by half. On to `Nc1ccc(/C=C/C(=O)NCCc2cc3cc(-c4ccc(C(=O)N5CCC(F)(F)CC5)cn4)cc(C(F)(F)F)c3o2)cn1` [Compound 690, (E)-3-(6-aminopyridin-3-yl)-N-(2-(5-(5-(4,4-difluoropiperidine-1-carbonyl)pyridin-2-yl)-7-(trifluoromethyl)benzofuran-2-yl)ethyl)acrylamide], for which the IC50 with 3T3 cells (read-out: MTT Assay IC50, 3T3) is 0.1 to 5 µM; in the test on MS751 cells (setting [1]), under 0.1 µM; in the test with Z138 cells (setting [2]), under 0.1 µM.

Consider `C[C@@H]1COCCN1C(=O)c1ccc(-c2cc(Cl)c3oc(CNC(=O)/C=C/c4ccc(N)nc4)cc3c2)cc1` [Compound 516, (R,E)-3-(6-aminopyridin-3-yl)-N-((7-chloro-5-(4-(3-methylmorpholine-4-carbonyl)phenyl)benzofuran-2-yl)methyl)acrylamide], for which the IC50 was over 10 µM in the test with 3T3 cells (read-out: MTT Assay IC50 3T3), 0.1 to 5 µM with MS751 cells (setting [3]) and 0.1 to 5 µM with Z138 cells (read-out: MTT Assay IC50 Z-138).

In the case of `Nc1ccc(/C=C/C(=O)NCc2cc3cc(-c4ccc(C(=O)N5CCC(F)(F)CC5)cn4)cc(-c4ccc(F)cc4)c3o2)cn1` [Compound 665, (E)-3-(6-aminopyridin-3-yl)-N-((5-(5-(4,4-difluoropiperidine-1-carbonyl)pyridin-2-yl)-7-(4-fluorophenyl)benzofuran-2-yl)methyl)acrylamide], the IC50 with 3T3 cells (read-out: MTT Assay IC50, 3T3) is 0.1 to 5 µM; in the test with MS751 cells (setting [1]) it was under 0.1 µM; in the test with Z138 cells (setting [2]), under 0.1 µM.

As to `Nc1ccc(/C=C/C(=O)NCc2cc3cc(-c4cc(F)c(C(=O)N5CCOCC5)cc4F)cc(Cl)c3o2)cn1` [Compound 547, (E)-3-(6-aminopyridin-3-yl)-N-((7-chloro-5-(2,5-difluoro-4-(morpholine-4-carbonyl)phenyl)benzofuran-2-yl)methyl)acrylamide], the 50% inhibitory concentration (IC50) is over 10 µM with 3T3 cells (read-out: MTT Assay IC50 3T3), 0.1 to 5 µM in the test with MS751 cells (setting [3]) and 0.1 to 5 µM with Z138 cells (read-out: MTT Assay IC50 Z-138).

As for `Nc1ccc(/C=C/C(=O)NCc2cc3cc(-c4ccc(C(=O)N5CCC(Cl)CC5)cc4)cc(C(F)(F)F)c3o2)cn1` [Compound 607, (E)-3-(6-aminopyridin-3-yl)-N-((5-(4-(4-chloropiperidine-1-carbonyl)phenyl)-7-(trifluoromethyl)benzofuran-2-yl)methyl)acrylamide], the IC50 in the test on 3T3 cells (read-out: MTT Assay IC50 3T3) is over 10 µM; in the test on MS751 cells (setting [3]), 0.1 to 5 µM; in the test with Z138 cells (read-out: MTT Assay IC50 Z-138), 0.1 to 5 µM.

Turning to `Nc1ccc(/C=C/C(=O)NCc2cc3cc(-c4ccc(NC(=O)N5CCOCC5)cc4)cc(Cl)c3o2)cn1` [Compound 582, (E)-N-(4-(2-((3-(6-aminopyridin-3-yl)acrylamido)methyl)-7-chlorobenzofuran-5-yl)phenyl)morpholine-4-carboxamide], the IC50 with 3T3 cells (read-out: MTT Assay IC50 3T3) is over 10 µM; in the test on MS751 cells (setting [3]), 5 to 10 µM; in the test with Z138 cells (read-out: MTT Assay IC50 Z-138), 5 to 10 µM.

On to `Nc1ccc(/C=C/C(=O)NCc2cc3cc(-c4ncc(C(=O)N5CCNCC5)cn4)cc(C(F)(F)F)c3o2)cn1` [Compound 590, (E)-3-(6-aminopyridin-3-yl)-N-((5-(5-(piperazine-1-carbonyl)pyrimidin-2-yl)-7-(trifluoromethyl)benzofuran-2-yl)methyl)acrylamide], for which the results for the IC50 in the test with 3T3 cells (read-out: MTT Assay IC50 3T3), with MS751 cells (setting [3]) and in the test on Z138 cells (read-out: MTT Assay IC50 Z-138) were over 10 µM, 0.1 to 5 µM and 0.1 to 5 µM, respectively.

Take `O=C(/C=C/c1cccnc1)NCc1cc2cc(-c3ccc(C(=O)N4CCC(F)(F)CC4)cc3)cc(OC(F)(F)F)c2o1` [Compound 687, (E)-N-((5-(4-(4,4-difluoropiperidine-1-carbonyl)phenyl)-7-(trifluoromethoxy)benzofuran-2-yl)methyl)-3-(pyridin-3-yl)acrylamide]: the IC50 with 3T3 cells (read-out: MTT Assay IC50, 3T3) is 0.1 to 5 µM; in the test on MS751 cells (setting [1]) it was under 0.1 µM; in the test with Z138 cells (setting [2]) it was under 0.1 µM.

Turning to `Nc1ccc(/C=C/C(=O)NCc2cc3cc(-c4ccc(C(=O)N5CCOCC5)cc4)cc(C(F)F)c3o2)cn1` [Compound 557, (E)-3-(6-aminopyridin-3-yl)-N-((7-(difluoromethyl)-5-(4-(morpholine-4-carbonyl)phenyl)benzofuran-2-yl)methyl)acrylamide], the figures for the IC50 in the test with 3T3 cells (read-out: MTT Assay IC50 3T3), in the test with MS751 cells (setting [3]) and in the test on Z138 cells (read-out: MTT Assay IC50 Z-138) were over 10 µM, 0.1 to 5 µM and 0.1 to 5 µM, respectively.

The values above are taken from patent US12331040B2 (Karyopharm Therapeutics Inc., priority 2013, dated 2025).
